Assay results published in US9079913B2, “Spiro-oxindole MDM2 antagonists” (The Regents of the University of Michigan, priority 2009, dated 2015).
Where two headings read alike, the source gives them in different places.

Experiments:
[1] = target: recombinant human His-tagged MDM2 protein (residues 1-118) (Homo sapiens (Human), UniProt Q00987); test: Fluorescence-polarization MDM2 binding assay; conditions: Table 19B; read-out: Binding affinities to MDM2 protein as determined by FP based assay IC50;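 note: fluorescence polarization read after three hours of incubation in potassium phosphate buffer containing bovine gamma globulin and Triton X-100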
Chain of recombinant human His-tagged MDM2 protein (residues 1-118) (Q00987 1-118): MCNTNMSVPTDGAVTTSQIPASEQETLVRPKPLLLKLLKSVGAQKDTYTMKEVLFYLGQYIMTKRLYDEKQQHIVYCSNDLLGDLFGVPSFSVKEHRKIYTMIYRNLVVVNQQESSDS

[2] = system: cancer cell lines with wild-type p53 / mutated or deleted p53 (ATCC); test: Cell growth assay (WST-8), other cancer cell lines; type: cell-based
[3] = system: Isogenic HCT-116 colon cancer cell lines; test: cells; type: cell-based;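 note: cells grown in 96-well plates in McCoy's 5A medium with 10% FBS, exposed to compound for 4 days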
Procedure: Cells were seeded in 96-well flat bottom cell culture plates at a density of 2−3×10^3 cells/well with compounds and incubated for 4 days.

[4] = Table 19B, LNCaP cells, read-out: Inhibition of cell growth IC50, LNCaP
[5] = Table 19B, PC3 cells, read-out: Inhibition of cell growth IC50, PC3
[6] = read-out: Inhibition of cell growth IC50, HCT116 p53 KO, Table 19B, HCT116 p53 KO
[7] = read-out: Inhibition of cell growth IC50, HCT116 p53 WT, Table 19B, HCT116 p53 WT
[8] = Homo sapiens, LNCaP, Table 19B, LNCaP cells, read-out: Inhibition of cell growth IC50, LNCaP
[9] = Homo sapiens, PC-3, Table 19B, PC3 cells, read-out: Inhibition of cell growth IC50, PC3
[10] = Homo sapiens, HCT-116, read-out: Inhibition of cell growth IC50, HCT116 p53 KO, Table 19B, HCT116 p53 KO
[11] = Homo sapiens, HCT-116, read-out: Inhibition of cell growth IC50, HCT116 p53 WT, Table 19B, HCT116 p53 WT

Row | SMILES | IC50 [1] [nM] | IC50 [2, 4] [µM] | IC50 [2, 5] [µM] | IC50 [3, 6] [µM] | IC50 [3, 7] [µM] | IC50 [2, 8] [µM] | IC50 [2, 9] [µM] | IC50 [3, 10] [µM] | IC50 [3, 11] [µM]
1 | O=C(NCC[C@H](O)CO)[C@@H]1N[C@H](CC2CCCCC2)[C@]2(C(=O)Nc3cc(Cl)c(F)cc32)[C@H]1c1cccc(Cl)c1 [MI-716B] | < 1000 | 0.86 ± 0.3 | 9 ± 2.8 | 11.5 ± 0.7 | 0.6 ± 0.2 |  |  |  | 
2 | O=C(NCC[C@H](O)CO)[C@@H]1N[C@H](CC2CCCCC2)[C@]2(C(=O)Nc3cc(Cl)c(F)cc32)[C@H]1c1cccc(Cl)c1 [MI-716C] | < 1000 | 0.8 ± 0.1 | 8 ± 2 | 12 ± 3.4 | 0.7 ± 0.2 |  |  |  | 
3 | CN1[C@@H](C(=O)NCC[C@H](O)CO)[C@H](c2cccc(Cl)c2)[C@@]2(C(=O)Nc3cc(Cl)c(F)cc32)[C@H]1CC(C)(C)C [MI-717] | > 3000 | 2.7 ± 0.6 | 31.5 ± 1.4 | 47.8 ± 1.4 | 2.2 ± 0.1 |  |  |  | 
4 | CN1[C@@H](C(=O)NCC[C@H](O)CO)[C@H](c2cccc(Cl)c2F)[C@@]2(C(=O)Nc3cc(F)c(F)cc32)[C@H]1CC(C)(C)C [MI-718] | > 3000 |  |  |  |  | 3.7 ± 0.3 | 34.2 ± 0.4 | 47.2 ± 5 | 3 ± 1.1
5 | CC(C)(C)C[C@@H]1[C@]2(C(=O)Nc3cc(Cl)c(F)cc32)[C@@H](c2cccc(Cl)c2)[C@H](C(=O)NCC[C@H](O)CO)[N+]1(C)C [MI-719] | > 10000 |  |  |  |  | 51.2 | > 100 | > 100 | 58.6 ± 14.9
6 | CCC(C)(C)C[C@H]1N[C@@H](C(=O)NCC[C@H](O)CO)[C@H](c2cccc(Cl)c2)[C@@]12C(=O)Nc1cc(Cl)c(F)cc12 [MI-720] | < 1000 |  |  |  |  | 0.76 ± 0.1 | 15.2 ± 3.2 | 19.5 ± 5.6 | 0.69
7 | CC(C)(C)C[C@H]1N[C@@H](C(=O)NCCN2CCOCC2)[C@H](c2cccc(Cl)c2F)[C@@]12C(=O)Nc1cc(F)c(F)cc12 [MI-721] | < 3000 |  |  |  |  | 1.4 | 15.2 ± 1.4 | 18.4 ± 5.4 | 1.5 ± 0.3
8 | CCC(C)(C)C[C@H]1N(C)[C@@H](C(=O)NCC[C@H](O)CO)[C@H](c2cccc(Cl)c2F)[C@@]12C(=O)Nc1cc(F)c(F)cc12 [MI-723] | < 5000 |  |  |  |  | 2.3 | 24.7 | 51.3 | 2.42
9 | CCCCC(C)(C)C[C@H]1N[C@@H](C(=O)NCC[C@H](O)CO)[C@H](c2cccc(Cl)c2)[C@@]12C(=O)Nc1cc(Cl)c(F)cc12 [MI-724] | < 1000 |  |  |  |  | 1.2 ± 0.4 | 3.9 ± 0.2 | 5.3 ± 0.3 | 1.1 ± 0.5
10 | CC(C)CC(C)(C)C[C@H]1N[C@@H](C(=O)NCC[C@H](O)CO)[C@H](c2cccc(Cl)c2)[C@@]12C(=O)Nc1cc(Cl)c(F)cc12 [MI-725] | < 1000 |  |  |  |  | 0.8 ± 0.1 | 4.7 ± 1 | 5.8 ± 2.9 | 0.7
11 | CC(C)CC(C)(C)C[C@H]1N(C)[C@@H](C(=O)NCC[C@H](O)CO)[C@H](c2cccc(Cl)c2)[C@@]12C(=O)Nc1cc(Cl)c(F)cc12 [MI-726] | < 5000 |  |  |  |  | 2.3 ± 0.3 | 5.1 ± 1.4 | 8 ± 0.8 | 2.3 ± 0.8
12 | CC(C)(C)C[C@H]1N[C@@H](C(=O)NCC[C@H](O)CO)[C@H](c2cccc(Cl)c2)[C@@]12C(=O)Nc1c(Cl)cccc12 [MI-727] | > 10000 |  |  |  |  | 12.2 ± 0.5 | 21.4 ± 4.8 | 20.9 ± 1.1 | 24.1 ± 0.7
13 | CCCCC(C)(C)C[C@H]1N(C)[C@@H](C(=O)NCC[C@H](O)CO)[C@H](c2cccc(Cl)c2)[C@@]12C(=O)Nc1cc(Cl)c(F)cc12 [MI-728] | < 5000 |  |  |  |  | 2.1 ± 0.1 | 7.1 ± 2 | 16.9 ± 5.6 | 4 ± 0.8
14 | CCCC(C)(C)C[C@H]1N[C@@H](C(=O)NCC[C@H](O)CO)[C@H](c2cccc(Cl)c2)[C@@]12C(=O)Nc1cc(Cl)c(F)cc12 [MI-729] | < 1000 |  |  |  |  | 1 | 6.1 ± 1.6 | 8.9 ± 0.1 | 0.8 ± 0.2
